Reference: patent US5716929A (Vertex Pharmaceuticals, Inc., priority 1995, dated 1998)

How the values were obtained:
[1] = system: mature IL-1β, Human Peripheral Blood Mononuclear Cells (PBMC); assay: Cell assay: IL-1β assay with human PBMC or enriched adherent mononuclear cells; assay type: cell-based; details: LPS-stimulated cells, mature IL-1β by ELISA
Description: IL-1β Assay with a Mixed Population of Human Peripheral Blood Mononuclear Cells (PBMC) or Enriched Adherent Mononuclear Cells
Processing of pre-IL-1β by ICE can be measured in cell culture using a variety of cell sources. Human PBMC obtained from healthy donors provides a mixed population of lymphocyte subtypes and mononuclear cells that produce a spectrum of interleukins and cytokines in response to many classes of physiological stimulators. Adherent mononuclear cells from PBMC provides an enriched source of normal monocytes for selective studies of cytokine production by activated cells.
An initial dilution series of test compound in DMSO or ethanol is prepared, with a subsequent dilution into RPMI-10% FBS media (containing 2 mM L-glutamine, 10 mM HEPES, 50 U and 50 ug/ml pen/strep) respectively to yield drugs at 4× the final test concentration containing 0.4% DMSO or 0.4% ethanol. The final concentration of DMSO is 0.1% for all drug dilutions. A concentration titration which brackets the apparent Ki for a test compound determined in an ICE inhibition assay is generally used for the primary compound screen.
We generally test 5-6 compound dilutions and have performed the cellular component of the assay in duplicate, with duplicate ELISA determinations on each cell culture supernatant.
Buffy coat cells isolated from one pint human blood (yielding 40-45 ml final volume plasma plus cells) are diluted with media to 80 ml and LeukoPREP separation tubes (Becton Dickinson) are each overlaid with 10 ml of cell suspension. After 15 min centrifugation at 1500-1800×g, the plasma/media layer is aspirated and then the mononuclear cell layer is collected with a Pasteur pipette and transferred to a 15 ml conical centrifuge tube (Corning). Media is added to bring the volume to 15 ml, gently mix the cells by inversion and centrifuge at 300×g for 15 min. Resuspend the PBMC pellet in a small volume of media, count cells and adjust to 6×10^6 cells/ml.
For the cellular assay, add 1.0 ml of the cell suspension to each well of a 24-well flat bottom tissue culture plate (Corning), 0.5 ml test compound dilution and 0.5 ml LPS solution (Sigma #L-3012; 20 ng/ml solution prepared in complete RPMI media; final LPS concentration 5 ng/ml). The 0.5 ml additions of test compound and LPS are usually sufficient to mix the contents of the wells. Three control mixtures are run per experiment, with either LPS alone, solvent vehicle control, and/or additional media to adjust the final culture volume to 2.0 ml. The cell cultures are incubated for 16-18 hr at 37° C. in the presence of 5% CO2.
At the end of the incubation period, cells are harvested and transferred to 15 ml conical centrifuge tubes. After centrifugation for 10 min at 200×g, supernatants are harvested and transferred to 1.5 ml Eppendorf tubes. It may be noted that the cell pellet may be utilized for a biochemical evaluation of pre-IL-1β and/or mature IL-1β content in cytosol extracts by western blotting or ELISA with pre-IL-1β specific antisera.
PBMC are isolated and prepared as described above. Media (1.0 ml) is first added to wells followed by 0.5 ml of the PBMC suspension. After a one hour incubation, plates are gently shaken and nonadherent cells aspirated from each well. Wells are then gently washed three times with 1.0 ml of media and final resuspended in 1.0 ml media. The enrichment for adherent cells generally yields 2.5-3.0×10^5 cells per well. […]

[2] = target: T1, interleukin-1β converting enzyme (ICE) (Homo sapiens, UniProt P29466); assay: Enzyme assay with UV-visible substrate (Succinyl-Tyr-Val-Ala-Asp-pNitroanilide); assay type: biochemical
T1 sequence (P29466 120-297 limits assumed): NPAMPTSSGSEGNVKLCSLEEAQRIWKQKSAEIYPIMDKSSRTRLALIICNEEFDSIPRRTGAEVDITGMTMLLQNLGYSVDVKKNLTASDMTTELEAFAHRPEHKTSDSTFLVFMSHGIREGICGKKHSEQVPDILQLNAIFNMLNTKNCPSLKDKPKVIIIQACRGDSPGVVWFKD
T1 sequence (P29466 317-404 limits assumed): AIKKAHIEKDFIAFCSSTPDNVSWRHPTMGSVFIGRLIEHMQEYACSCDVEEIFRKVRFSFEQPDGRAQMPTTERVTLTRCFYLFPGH
Procedure: 1. Enzyme assay with UV-visible substrate
This assay is run using an Succinyl-Tyr-Val-Ala-Asp-pNitroanilide substrate (SEQ ID NO: 1). Synthesis of analogous substrates is described by L. A. Reiter (Int. J. Peptide Protein Res. 43, 87-96 (1994)). The assay mixture contains: […]
The visible ICE assay is run in a 96-well microtiter plate. Buffer, ICE and DMSO (if inhibitor is present) are added to the wells in the order listed. The components are left to incubate at room temperature for 15 minutes starting at the time that all components are present in all wells. The microtiter plate reader is set to incubate at 37° C. After the 15 minute incubation, substrate is added directly to the wells and the reaction is monitored by following the release of the chromophore (pNA) at 405-603 nm at 37° C. for 20 minutes. A linear fit of the data is performed and the rate is calculated in mOD/min. DMSO is only present during experiments involving inhibitors, buffer is used to make up the volume to 100 μl in the other experiments.
(§1) For determination of enzyme inhibition constants (Ki) or the mode of inhibition (competitive, uncompetitive or noncompetitive), the rate data determined in the enzyme assays at varying inhibitor concentrations are computer-fit to standard enzyme kinetic equations (see I. H. Segel, Enzyme Kinetics, Wiley-Interscience, 1975).

[3] = target: T1, interleukin-1β converting enzyme (ICE); assay: Enzyme assay with fluorescent substrate (Acetyl-Tyr-Val-Ala-Asp-AMC); assay type: biochemical; details: Example 2 table, read-out: Fluorescence Ki
Procedure: 2. Enzyme Assay with Fluorescent Substrate
This assay is run essentially according to Thornberry et al. (Nature 356: 768-774 (1992)), using substrate 17 referenced in that article. The substrate is: Acetyl-Tyr-Val-Ala-Asp-amino-4-methylcoumarin (AMC) (SEQ ID NO: 2). The following components are mixed: […]
The assay is run in a 96 well microtiter plate. Buffer and ICE are added to the wells. The components are left to incubate at 37° C. for 15 minutes in a temperature-controlled wellplate. After the 15 minute incubation, the reaction is started by adding substrate directly to the wells and the reaction is monitored @37° C. for 30 minutes by following the release of the AMC fluorophore using an excitation wavelength for 380 nm and an emission wavelength of 460 nm. A linear fit of the data for each well is performed and a rate is determined in fluorescence units per second.
as §1

[4] = Homo sapiens, PBMC, Example 2 table

| Compound | Ki [3] [nM] | IC50 ([1]; Example 2 table) [nM] | Ki ([2]; Example 2 table) [nM] | IC50 [1, 4] [nM] | also measured |
| --- | --- | --- | --- | --- | --- |
| COc1cccc2nc(C(=O)[C@H](CC(=O)O)NC(=O)[C@@H]3C[C@H](Oc4ccccc4)CN3C(=O)[C@@H](NC(C)=O)C(C)C)oc12 [Compound 86, N-Acetyl-(S)-valinyl-(4-(S)-phenoxy)prolinyl-3(S)-amino-4-(7-methoxybenzoxazol-2-yl)-4-oxo-butanoic acid] | – | – | – | – | IC50 ([1]; Example 6 table): 4000 nM; Ki ([2]; Example 6 table): 175 nM |
| CC(=O)N[C@@H](Cc1ccc(O)cc1)C(=O)N[C@H](C(=O)N1CC(OCc2ccccc2)C[C@H]1C(=O)NC(C=O)CC(=O)O)C(C)C (stereo partly shown) [Compound K, N-[N-Acetyl-tyrosinyl-valinyl-(4-benzyloxy)prolinyl]-3-amino-4-oxobutanoicacid] | 2 | 2000 to 11000 | 10 | – | – |
| CC(=O)N[C@@H](Cc1ccc(O)cc1)C(=O)N[C@H](C(=O)N1CC(Oc2ccccc2)C[C@H]1C(=O)NC(C=O)CC(=O)O)C(C)C (stereo partly shown) [I, N-(N-Acetyl-tyrosinyl-valinyl-(4-phenoxyprolinyl))-3-amino-4-oxobutanoicacid] | – | – | – | 2600 | – |
| CC(=O)N[C@@H](Cc1ccc(O)cc1)C(=O)N[C@H](C(=O)N1CC(O)C[C@H]1C(=O)NC(C=O)CC(=O)O)C(C)C (stereo partly shown) [J, N-[N-Acetyl-tyrosinyl-valinyl-(4-hydroxyprolinyl)]-3-amino-4-oxobutanoicacid] | – | – | – | 5000 to 7000 | – |
| N-(N-Acetyl-tyrosinyl-valinyl-pipecolyl)-3-amino-4-oxobutanoic acid [H] | 4.7 | 6000 to 11000 | 23 | – | – |
